Laboratory results as given in patent US20070161628A1, “Phosphodiesterase inhibitors” (GREENPHARMA, priority 2004, published 2007).

What was measured:
[1] = biological target: T1, human type 2 phosphodiesterase (source: U-937 cells) (Homo sapiens, UniProt O00408); experiment: Inhibition of PDE2; format: biochemical; details: substrate 1 μM, 30 minutes at 30° C.
T1 construct: human type 2 phosphodiesterase (source: U-937 cells); endogenous in cells; host or cells: U-937 cells
Method: This novel family of compounds was tested as inhibitor of human type 2 phosphodiesterase (source: U-937 cells) by following the process described by Torphy, T. J., Zhou, H. L. and Cieslinski, L. B. (J. Pharmacol. Exp. Ther., 1992, 263, 1195-1205). […] A quantitative measurement of the hydrolysis product [^3H]-5′-AMP was determined by scintillation.

[2] = system: TNF-alpha in peripheral blood mononuclear cells (PBMC); experiment: Anti-inflammatory properties: TNF-alpha in LPS-activated PBMC; format: cell-based; details: LPS 1 μg/ml, 24 hours, EIA
Method: The compounds according to the invention were evaluated for their anti-inflammatory properties on peripheral blood mononuclear cells (PBMC). More particularly, the cells were incubated for 24 hours in the presence of the test molecule, after activation with lipopolysaccharide (LPS) (1 μg/ml) according to the protocol described by Schindler, R., Mancilla, J., Endres, S., Ghorbani, R., Clark, S. C. and Dinarello, C. A. (Blood, 1990, 75, 40-47). After incubation, the concentrations of TNF-alpha were measured in the culture supernatants by the EIA method.

[3] = system: PDE1 (bovine); experiment: Selectivity towards PDE1; format: biochemical; details: substrate [3H]cAMP+cAMP 1 μM, 30 minutes at 30° C.
Method: (§1) D., JACKMAN S. A. and WILKE R. (Brit. J. Pharmacol. 1989, 97, 889-897); (ii, PDE3 and PDE5) Weishaar, R. E., Burrows, S. D., Kobylarz, D. C., Quade, M. M. and Evans, D. B. (Biochem. Pharmacol., 1986, 35, 787-800); (iii, PDE6) Ballard, A. S., Gingell, C. J., Tang, K., Turner, L. A., PRICE, M. E. (J. Urol, 1998, 159, 2164-2171). […] In the case of PDE 5 and 6, the substrate used is ([^3H]cGMP+cGMP) at a concentration of 1 μM for PDE5 and 2 μM for PDE6. A quantitative measurement of the hydrolysis products [^3H]-5′-AMP and [^3H]-5′-GMP was determined by scintillation.

[4] = system: primary neuron cultures (foetal rat cerebral cortex); experiment: Stimulation of neurotrophic factors: primary neuron cultures observed with and without compound; format: cell-based
Method: The neurons are cultured in neurobasal medium using foetal rat cerebral cortex according to the procedure described in Example 1 and are photographed without staining 17 days after culturing. Culture A is a control culture without compound. […] Compounds according to the invention were evaluated for their neurotrophic properties. The idea is thus to observe the behaviour of a neuron cell culture in the absence and presence of such molecules. The molecule used in this example is S-tofisopam. The adult animals are coupled and the female rats are separated out the next day. After 16 days, a caesarean section is performed on the gestating female rats and the foetuses are placed in a Petri dish 100 mm in diameter. They are transferred to a laminar flow fume cupboard, in sterile medium. The foetuses are individually isolated and are dissected under a binocular magnifying glass in sterile medium. The cerebral cortex is isolated and placed in a tube containing antibiotic-free neurobasal medium. The tissue is dissociated by suction-ejection, into individual cells in a volume of 2 ml. The cell suspension is then delicately deposited on 2-ml of inactivated foetal calf serum. The tube is centrifuged at low gravity (800 g) for 5 minutes at room temperature. The cell pellet is recovered and the cells are resuspended in complete neurobasal medium. The cells are counted using a Mallassez haematimeter in the presence of trypan blue to determine the cell viability. Culturing is performed by placing 800 000 cells in Petri dishes 60 mm in diameter containing complete neurobasal medium, preheated and equilibrated in a CO2 incubator. These dishes were lined beforehand with a polylysine coat the day before the manipulation. The incubator temperature is set at 37° C., the CO2 level at 5% and the humidity is saturating. The Petri dishes containing the cells are then placed in the incubator. […] These cultures constitute primary neuron cultures. The neuron cultures as prepared above serve as controls. Five dishes are used in order to have a statistical approach. In the other dishes, the test molecule is added at different concentrations: 0.1 μmol/l, 1 μmol/l and 10 μmol/l. In each case, the manipulation is repeated 5 times. The neurons are examined by inverted phase-contrast microscope (Zeiss Axiovert 135) every day after inoculation. The neurons are photographed at various magnifications using a photography camera and are compared between series.

[5] = system: trabecular bone; experiment: Microarchitecture and study of bone markers in mice; format: in vivo, C57BL6 mice; details: 5 mg/kg per day, 5 days per week, 4 weeks, subcutaneous; for effect on the bone quantity and microarchitecture (BV/TV, Tb.N): distal metaphysis of the femur, microQCT
Method: The object is to test the effect of the components described above on the microarchitecture of the trabecular bone. […] Results on the Bone Microarchitecture • No significant difference between the groups at the start of the treatment. No significant difference between the control (base) group and the Sham group. All the significant differences are represented by an *, *p<0.05; **p<0.01 • Several parameters (10) are recorded and analysed, such as: • BV/TV: represents the bone volume of the trabecular bone to the tissue volume, • Tb.N: trabecular number. The trabecular bone volume (BV/TV, %) and the trabecular number (Tb.N) are calculated via the “Mean Intercept Length (MIL)” method. The trabecular thickness (Tb.Th) and the trabecular space (Tb.Sp) are calculated via the method described by Hildebrand & Ruegsegger (Journal of Microscopy. 185:67-75, 1997). • BV/TV: FIG. 5 • Tb.N: FIG. 6 CONCLUSION

[6] = system: human type 4 phosphodiesterase (source: U-937 cells); experiment: Inhibition of PDE4
Method: A quantitative measurement of the hydrolysis product [^3H]-5′-AMP was determined by scintillation.

[7] = system: primary cultures of rat motor neuron embryonic cells; experiment: Neuroprotective effect, apoptosis induced by suppression of BDNF; format: cell-based; details: 1 μM; apoptosis induced by BDNF deprivation
Method: This test was performed according to the protocol described by Estevez A. G. et al. (J. Neurosci. 1998, 18(3), 923-931). Briefly, when primary cultures of rat motor neuron embryonic cells are deprived of “brain-derived neurotrophic factor” (BDNF), an induction of neuronal “nitric oxide synthase” (NOS) was observed, resulting in the gradual death of the neurons by apoptosis: between 18 and 24 hours after making the biological preparation, more than 60% of the neurons die. In this model of induced apoptosis, the compound described in Example 1 (S-tofisopam and analogues) protects the neurons by more than 50% at a concentration of 1 μM.

[8] = system: PDE3 (human); experiment: Selectivity towards PDE3; format: biochemical; details: PDE1, 3, 5 and 6
Method: as §1

T1 sequence (O00408 whole entry): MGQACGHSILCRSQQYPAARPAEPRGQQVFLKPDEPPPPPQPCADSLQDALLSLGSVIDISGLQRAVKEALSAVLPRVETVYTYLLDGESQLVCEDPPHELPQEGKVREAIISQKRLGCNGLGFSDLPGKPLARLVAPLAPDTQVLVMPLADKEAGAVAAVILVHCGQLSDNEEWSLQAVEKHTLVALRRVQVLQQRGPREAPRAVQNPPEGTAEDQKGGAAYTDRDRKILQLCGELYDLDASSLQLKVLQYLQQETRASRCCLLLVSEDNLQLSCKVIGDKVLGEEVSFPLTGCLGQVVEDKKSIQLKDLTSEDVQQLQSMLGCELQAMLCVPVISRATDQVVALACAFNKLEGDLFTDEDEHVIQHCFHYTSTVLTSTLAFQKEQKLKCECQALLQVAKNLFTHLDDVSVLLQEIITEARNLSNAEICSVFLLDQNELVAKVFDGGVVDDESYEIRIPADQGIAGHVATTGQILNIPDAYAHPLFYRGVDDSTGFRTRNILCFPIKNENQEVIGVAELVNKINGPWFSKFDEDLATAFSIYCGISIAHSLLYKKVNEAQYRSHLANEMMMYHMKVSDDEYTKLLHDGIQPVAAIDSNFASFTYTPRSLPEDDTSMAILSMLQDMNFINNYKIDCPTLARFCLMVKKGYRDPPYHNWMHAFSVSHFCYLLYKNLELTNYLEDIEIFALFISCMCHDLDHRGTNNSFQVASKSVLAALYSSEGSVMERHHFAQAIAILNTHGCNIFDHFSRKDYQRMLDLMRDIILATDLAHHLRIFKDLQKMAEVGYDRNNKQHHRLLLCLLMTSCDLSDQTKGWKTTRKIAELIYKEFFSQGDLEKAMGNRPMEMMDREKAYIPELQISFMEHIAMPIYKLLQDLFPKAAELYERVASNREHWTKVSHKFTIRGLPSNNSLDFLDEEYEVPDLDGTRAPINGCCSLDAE

## CCCCCC[C@@H]([C@@H](C)O)n1cnc2c(N)ncnc21 (racemic) [EHNA, reference compound]
[1]
  IC50: 2100 nM

## C[C@@H]1C[C@H]2[C@@H]3CCC4=CC(=O)C=C[C@]4(C)[C@@]3(F)[C@@H](O)C[C@]2(C)[C@@]1(O)C(=O)CO [dexamethasone, reference compound]
[2]
  IC50: 4600 nM

## CCOc1cc2c(cc1OCC)[C@@H](CC)C(C)=NN=C2c1ccc(OC)c(OC)c1 [R-etofisopam, (R) 1-(3,4-dimethoxy-phenyl)-4-methyl-5-ethyl-7,8-diethoxy-5H-2,3-benzodiazepine]
[2]
  IC50: 1 to 100 nM

## COCc1nc2c([nH]1)c(=O)n(C)c(=O)n2CC(C)C [8-methoxy-IBMX]
[3]
  IC50: 2900 nM

## CCOc1cc2c(cc1OCC)C(CC)C(C)=NN=C2c1ccc(OC)c(OC)c1 (racemic)
other
  melting point: 91 to 93 °C

## CC[C@@H]1C(C)=NN=C(c2ccc(OC)c(OC)c2)c2cc(OC)c(OC)cc21 [S-tofisopam, (5S)-1-(3,4-dimethoxyphenyl)-5-ethyl-7,8-dimethoxy-4-methyl-5H-2,3-benzodiazepine]
[1]
  IC50: 500 nM
[4]; astrocyte culture supernatant added, compared with control
  density of the neurites with added astrocyte culture supernatant: increasing the density of the neurites
[4]; control: all neurons disappeared after 15 days
  cell survival: time treated neurons remain alive after application: almost four weeks
[4]; overall conclusion
  neurotrophic and neuroprotective role in neuron culture: not only a neurotrophic role but also a neuroprotective role
[4]; primary neuron culture, test concentrations 0.1, 1 and 10 μmol/l (FIG. 1: 50 μM added on day 8)
  growth of the neurites versus control: greater growth of the neurites than in the cells used as control
[5]
  markers and cellular activity: effect on bone formation and bone resorption: uncoupling effect: anabolic on bone formation, inhibitory on bone resorption
  effect on the bone quantity and microarchitecture (BV/TV, Tb.N): positive effect
[6]; S-tofisopam versus R-tofisopam
  inhibition on PDE4 relative to R-tofisopam: ten times higher
[2]
  IC50: 1 to 100 nM
[7]
  protection of the neurons: more than 50%
[8]
  inhibition of the other PDEs, especially PDE3, compared with PDE4 or PDE2: more weakly

## CCOc1cc2c(cc1OCC)[C@H](CC)C(C)=NN=C2c1ccc(OC)c(OC)c1 [S-etofisopam, 5S-(3,4-dimethoxyphenyl)-5-ethyl-4-methyl-7,8-diethoxy-5H-2,3-benzodiazepine]
[5]
  effect on the bone quantity and microarchitecture (BV/TV, Tb.N): Identity results
[6]; read-out: IC50 PDE4, substrate [3H]cAMP+cAMP 1 μM, 30 minutes at 30° C.
  IC50: 20 nM
[2]
  IC50: 1 to 100 nM
[8]
  inhibition of the other PDEs, especially PDE3, compared with PDE4 or PDE2: more weakly
